Experimental data from patent US8895579B2, “Heterotricyclic AMPA receptor antagonists for treatment of epilepsy, pain, and other neurological disorders and diseases” (Northwestern University, priority 2010, dated 2014).

Key:
[1] = target: T1, homomeric GluA3 AMPA receptor (Rattus norvegicus, UniProt P19492); assay: Whole-cell patch clamp of recombinant GluA3 receptors in HEK293-T/17 cells; type: cell-based; conditions: 30 μM; 10 mM glutamate
T1 construct: expressed in transfected cells; host or cells: HEK293-T/17 (CRL-11268)
T1 sequence (P19492 23-888 isoform P19492-2 limits assumed): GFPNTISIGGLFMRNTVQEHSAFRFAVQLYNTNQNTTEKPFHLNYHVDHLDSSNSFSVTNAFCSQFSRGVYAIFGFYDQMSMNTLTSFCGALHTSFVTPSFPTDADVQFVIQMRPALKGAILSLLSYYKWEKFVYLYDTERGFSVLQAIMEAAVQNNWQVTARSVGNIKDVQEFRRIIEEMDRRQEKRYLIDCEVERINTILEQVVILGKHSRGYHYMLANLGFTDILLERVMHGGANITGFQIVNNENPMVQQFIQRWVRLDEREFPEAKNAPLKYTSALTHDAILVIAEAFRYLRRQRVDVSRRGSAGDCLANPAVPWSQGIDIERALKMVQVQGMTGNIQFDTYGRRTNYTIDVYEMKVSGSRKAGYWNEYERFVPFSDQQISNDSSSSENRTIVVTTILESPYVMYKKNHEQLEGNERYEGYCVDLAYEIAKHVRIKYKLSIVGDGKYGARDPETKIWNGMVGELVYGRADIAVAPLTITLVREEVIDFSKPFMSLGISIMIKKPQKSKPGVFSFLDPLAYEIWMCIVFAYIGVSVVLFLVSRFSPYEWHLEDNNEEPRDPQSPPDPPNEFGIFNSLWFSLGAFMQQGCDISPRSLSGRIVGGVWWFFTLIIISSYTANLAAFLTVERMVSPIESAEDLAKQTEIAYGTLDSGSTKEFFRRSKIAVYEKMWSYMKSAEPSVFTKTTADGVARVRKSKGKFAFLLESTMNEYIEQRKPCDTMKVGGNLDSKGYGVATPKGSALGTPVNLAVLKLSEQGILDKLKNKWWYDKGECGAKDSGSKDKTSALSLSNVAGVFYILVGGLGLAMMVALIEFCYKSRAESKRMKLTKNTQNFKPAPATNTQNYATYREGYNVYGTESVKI
Description: (§1) Cell Culture and Transfection. Human embryonic kidney cells expressing T-antigen, clone 17 (HEK293-T/17) (CRL-11268) were cultured at 37° C. with 5% CO2 in DMEM, including 100 μg/mL penicillin, 100 μg/mL streptomycin, and 10% heat-inactivated fetal bovine serum. Cells were split twice per week. For transfection, HEK293-T/17 cells were plated at 3×10^4 cells/cm^2 for pharmacology experiments and 5×10^3 cells/cm^2 for physiology experiments in fresh medium 24 h prior to transfection. Cells were transfected with AMPA or KA receptor plasmid cDNAs using Mirus Trans-IT transfection reagent (Minus Bio Corporation, Madison, Wis.) at a ratio of 1 μg cDNA: 3 μL Trans-1T reagent and maintained in transfection medium overnight followed by a media change the next day. Transfected cells were maintained in this medium until the experiment was conducted (48-72 h total post transfection).
Electrophysiology. For analysis of recombinant receptors, HEK293-T/17 cells were co-transfected with 0.2 μg of iGluR cDNA and 0.05 μg of eGFP. For heterologous GluA1/GluA2 receptors, the GluA1:GluA2 cDNA ratio was 1:6. Two to three days post-transfection, eGFP-expressing cells were lifted from the cover slip and voltage clamped in whole cell mode. […]

[2] = target: T2, heteromeric GluA1/GluA2 AMPA receptor (Rattus norvegicus, UniProt P19490+P19491); assay: Whole-cell patch clamp of recombinant GluA1/GluA2 receptors in HEK293-T/17 cells; type: cell-based
T2 construct: expressed in transfected cells; host or cells: HEK293-T/17 (CRL-11268)
T2 sequence (P19490 19-907 isoform P19490-2 limits assumed): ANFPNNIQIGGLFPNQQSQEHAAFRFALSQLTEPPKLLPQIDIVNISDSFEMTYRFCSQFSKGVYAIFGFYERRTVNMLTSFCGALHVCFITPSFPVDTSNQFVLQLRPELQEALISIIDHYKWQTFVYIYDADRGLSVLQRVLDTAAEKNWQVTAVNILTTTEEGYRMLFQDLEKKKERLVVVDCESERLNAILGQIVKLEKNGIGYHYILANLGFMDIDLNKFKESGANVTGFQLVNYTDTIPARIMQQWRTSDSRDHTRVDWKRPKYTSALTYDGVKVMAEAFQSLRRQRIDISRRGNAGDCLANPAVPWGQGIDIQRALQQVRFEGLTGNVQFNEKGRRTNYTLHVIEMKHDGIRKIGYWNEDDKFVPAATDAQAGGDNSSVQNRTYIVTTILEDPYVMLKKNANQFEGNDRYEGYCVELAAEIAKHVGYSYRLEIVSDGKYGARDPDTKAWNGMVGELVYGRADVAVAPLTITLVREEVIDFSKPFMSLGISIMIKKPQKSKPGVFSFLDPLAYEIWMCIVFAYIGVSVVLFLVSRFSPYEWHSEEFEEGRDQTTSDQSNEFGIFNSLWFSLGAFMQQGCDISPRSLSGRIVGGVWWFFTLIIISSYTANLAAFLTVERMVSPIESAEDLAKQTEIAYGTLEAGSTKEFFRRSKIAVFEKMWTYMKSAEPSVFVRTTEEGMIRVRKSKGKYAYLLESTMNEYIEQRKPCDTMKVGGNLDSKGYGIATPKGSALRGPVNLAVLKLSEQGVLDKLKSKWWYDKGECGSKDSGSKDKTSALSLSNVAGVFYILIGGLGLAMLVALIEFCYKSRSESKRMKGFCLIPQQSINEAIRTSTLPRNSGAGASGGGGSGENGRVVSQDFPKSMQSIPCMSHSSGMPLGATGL
T2 sequence (P19491 22-883 isoform P19491-2 limits assumed): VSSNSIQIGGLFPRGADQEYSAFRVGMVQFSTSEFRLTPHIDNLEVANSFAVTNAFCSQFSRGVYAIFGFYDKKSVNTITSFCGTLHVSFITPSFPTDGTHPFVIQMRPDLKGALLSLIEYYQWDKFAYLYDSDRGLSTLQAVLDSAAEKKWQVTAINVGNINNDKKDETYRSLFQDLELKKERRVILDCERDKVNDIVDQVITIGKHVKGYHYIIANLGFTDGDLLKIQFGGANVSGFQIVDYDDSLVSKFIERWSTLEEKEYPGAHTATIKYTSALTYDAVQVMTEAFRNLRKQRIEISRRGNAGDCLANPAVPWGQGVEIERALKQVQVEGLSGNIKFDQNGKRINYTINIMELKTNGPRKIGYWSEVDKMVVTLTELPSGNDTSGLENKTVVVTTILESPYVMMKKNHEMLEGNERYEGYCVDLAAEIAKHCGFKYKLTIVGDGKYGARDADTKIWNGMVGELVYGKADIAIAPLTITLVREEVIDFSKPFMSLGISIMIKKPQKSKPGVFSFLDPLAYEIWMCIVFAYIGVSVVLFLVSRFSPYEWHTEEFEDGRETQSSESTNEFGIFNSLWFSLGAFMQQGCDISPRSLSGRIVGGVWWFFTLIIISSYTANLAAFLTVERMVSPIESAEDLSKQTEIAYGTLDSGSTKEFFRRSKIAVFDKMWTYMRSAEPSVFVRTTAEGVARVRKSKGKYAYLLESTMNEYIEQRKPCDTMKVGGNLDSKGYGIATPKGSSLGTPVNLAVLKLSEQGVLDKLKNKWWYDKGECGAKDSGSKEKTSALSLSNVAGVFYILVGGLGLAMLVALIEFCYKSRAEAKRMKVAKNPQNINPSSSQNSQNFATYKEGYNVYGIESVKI
Description: as §1
Electrophysiology. For analysis of recombinant receptors, HEK293-T/17 cells were co-transfected with 0.2 μg of iGluR cDNA and 0.05 μg of eGFP. For heterologous GluA1/GluA2 receptors, the GluA1:GluA2 cDNA ratio was 1:6. Two to three days post-transfection, eGFP-expressing cells were lifted from the cover slip and voltage clamped in whole cell mode. The internal solution contained (in mM) 30 CsF, 110 CsCl, 10 HEPES, 4 NaCl, 5 EGTA and 0.5 CaCl2 (pH 7.3), while the extracellular solution contained (in mM) 140 NaCl, 10 glucose, 10 Cs-HEPES, 3 KCl, 2 CaCl2 and 1 MgCl2 (pH 7.3). Borosilicate patch electrodes were pulled and fire polished to 2-3 MO resistance. Lifted cells were maintained in a laminar stream of extracellular solution from a triple-barreled flow pipe, which was rapidly translated using a piezoceramic bimorph for fast application of glutamate or kainate alone or in combination with various antagonists (the 10-90% rise time of glutamate-evoked currents was ˜1 ms). IKM compounds were applied for three minutes with analysis performed on the final one minute of drug application.
Statistical analysis. At least three separate experiments were performed for each assay. […]

[3] = test system: NMDA receptor-mediated EPSCs, CA1 pyramidal cells; assay: NMDA receptor EPSCs at Schaffer collateral-CA1 synapses, acute hippocampal slices; type: cell-based, mouse; conditions: 20 μM; 5 min treatment
Description: For recordings from acute hippocampal slices, brains from P15-21 C57Bl/6 mice were sliced transversely (350 μm thickness) in a sucrose slicing solution containing (in mM) 85 NACl, 2.5 KCl, 1.25 NaH2PO4, 25 NaHCO3, 25 glucose, 75 sucrose, 0.5 CaCl2, 4 MgCl2, 0.5 Na ascorbate, 10 μM DL-APV and 100 μM kynurenic acid (pH 7.3). After slicing, the solution was exchanged with an incubation solution containing (in mM) 125 NaCl, 2.4 KCl, 1.2 NaH2PO4, 25 NaHCO3, 25 glucose: 1 CaCl2, 2 MgCl2, 0.5 Na ascorbate, 10 μM DL-APV and 100 μM kynurenic acid (pH 7.3) that was bubbled continuously with CO2-balanced O2 (carbogen). […] Recordings in voltage clamp mode used the CsF/CsCl internal solution and carbogenated external recording solution containing (in mM) 120 NaCl, 2.4 KCl, 2 MgCl2, 1 CaCl2, 25 NaHCO3, 1.2 NaH2PO4, 25 glucose, 10 μM bicuculline methiodide, 50 μM PTX and 50 μM D-APV (pH 7.3). […] NMDA EPSCs were validated by addition of D-APV (50 μM) at the end of each recording. Hippocampal CA1 or CA3 pyramidal cells were voltage clamped at −70 mV and stimulated with a monopolar electrode either the stratum radiatum or stratum lucidum, respectively. […] EPSC charge transfer, AP frequency, paired-pulse ratio and EPSC peak amplitude were analyzed with Mini-Analysis v6.03 (Synaptosoft, Decatur, Ga.) and Clampfit v10.0 (MDS, Sunnyvale, Calif.) software.

O=C(O)C[C@@]12O[C@H]3C=CCN[C@H]3C1CN[C@H]2C(=O)O (stereo partly drawn) [IKM-159]
GluA3 peak amplitude as percent of basal peak amplitude [1]: 83±2% | reduction in GluA3 peak current amplitude [1]: 17±2% | IC50 [2]: 26 ± 2 µM | GluA1/GluA2 peak amplitude as percent of basal peak amplitude ([2]; 30 μM, 10 mM glutamate): 56±5% | reduction in GluA1/GluA2 peak current amplitude ([2]; 30 μM, 10 mM glutamate): 44±5% | NMDA receptor-mediated EPSC amplitude, % of control amplitudes [3]: 99±3%
